# Entries after “also recorded” stand apart in the source; their conditions may differ.
# Experiments:
# [1] = system: Human Adenovirus Type 5; test: Adenovirus recovery from tear film of infected rabbit eyes, plaque assay on HeLa cell monolayers; type: in vivo
# Procedure: (§1) Clinical results and plaque assay viral titers of three CTC-96 treatment/dosing regimens of rabbit eyes infected with Human adenovirus, Adenovirus type 5 (Ad5), were evaluated. On “Day 1” animals were infected with Human Adenovirus Type 5 by the installation of 10^6 pfu adenovirus according to our protocol of conjunctival and corneal scarification for the induction of Keratoconjunctivitis. […] Animals were then randomized and the following experimental groups were treated with CTC-96 or placebo in a double blind experiment: • (1) Placebo (diluent alone), 9×/day, for 21 days: (4 rabbits). • (2) CTC-96 50 μg/ml, 9×/day, for 21 days: (4 rabbits). • (3) CTC-96 50 μg/ml, 6×/day, for 21 days: (4 rabbits). • (4) C T W 25 μg/ml, 6×/day, for 21 bays: (4 rabbits).
# The efficacy of CTC-96 treatment of rabbit eyes infected with Human adenovirus, Adenovirus type 5 (Ad5), was also evaluated by adenovirus recovery from tear film cultures adsorbed onto confluent HeLa cell monolayers. […] On day 8 post-inoculation treatment with eye drops containing CTC-96 or placebo was initiated. Adenovirus recovery from tear film was evaluated by plaque assay on confluent HeLa cell monolayers. Data are presented as Average±SD.
# [2] = system: Adenovirus types 1, 2, 3, 4, 5, and 7; test: CTC-96 efficacy against several adenovirus serotypes in HeLa cells in tissue culture (viral titers at each drug concentration); type: cell-based, Human Adenoviruses; conditions: drug overlaid after 1 hour adsorption, 24 hours, 500, 250, 100, 50, 10 μg/ml
# Procedure: Since these human viruses cannot be grown in animal models, this provides an excellent indication of the effectiveness of CTC-96 against a broad spectrum of Adenovirus types. To determine CTC-96 efficacy against several types of serotypes of adevirus the following procedure was followed:
# 1. Hela cells were confluent at the time of inoculation.
# 2. Virus dilutions were prepared from the known titers of the stock viruses (4×10^5 pfu/ml; 4×10^4/0.1 ml) of Ad1 Kmetz, Ad2 Wolf, Ad3 Holyfield, Ad4 Harris, Ad7a Joseph, ATCC. This virus inoculation yielded a virus infection with an m.o.i. (multiplicity of infection) of approximately 1.0.
# 3. 100 µl of each Ad serotype were inoculated onto cultures containing Hela cells.
# 4. During the adsorption period, Doxovir concentrations of 500, 250, 100, 50, 10, and 0 μg/ml were prepared in culture medium according to the dilution protocol.
# 5. Virus was adsorbed at 37° C. in a 5% CO2 water-vapor atmosphere for 1 hour.
# 6. […]
# 13. Viral titers were determined at each drug concentration. […]
# (§2) Anti-adenovirus activity of CTC-96 was evaluated by standard cell culture using HeLa cells, a human cervical carcinoma immortalized cell line (the usual host for laboratory grade adenovirus) and anti-viral plaque-reduction assays.
# [3] = system: human Adenovirus type 5 (Ad5); test: Virus titers after exposure of Ad5 infected HeLa cells to CTC-96 (plaque assay); type: cell-based; conditions: Ad5 adsorbed onto HeLa monolayers 60 min, then CTC-96 for 24 hr
# Procedure: Monolayers were then incubated for 24 hr at 37° C. and 5% CO2. Monolayers were then washed, scraped, sonicated, centrifuged and the supernatant serially diluted. These serial dilutions were plated onto indicator HeLa cell monolayers and adsorbed for 60 min, aspirated and a methylcellulose overlay placed over the cells, which were then incubated for 3 days at 37%. Cultures were counterstained with 1% methylene blue, allowed to dry and the plaques counted. Results am expressed as mean & SD (where error bars are not visible they are contained within data point).
# [4] = system: Human Adenovirus Type 5; test: CTC-96 treatment of Adenovirus induced keratoconjunctivitis in rabbit eyes, clinical grading by slit lamp microscopy; type: in vivo; conditions: for progression of disease severity: 21 days, from day 8 post-inoculation
# Procedure: as §1
# Clinical disease progression and resolution were evaluated by slit lamp microscopy on days 1, 3, 7, 10, 13, 18, 21, 24, 28 and 31 after initial drug dosing. The intensity of the keratitis was quantified using a clinical grading system (5).
# The data In FIG. 3 were obtained as follows: rabbits were infected with Human Adenovirus Type 5 by the installation 10^6 pfu adenovirus according to our protocol of conjunctival and corneal scarification for the production of Keratoconjunctivitis. On day 8 post-inoculation treatment with eye drops containing CTC-96 or placebo was initiated. Animals were examined for stromal keratitis and scored by the corneal disease scale of Wander et al. (5). The following are the Criteria For Determination Of Conjunctival Disease: […]
# [5] = system: Adenovirus type 5 (Ad5); test: Adenovirus type 5 titers following direct exposure of the virus to CTC-96 prior to HeLa cell infection (plaque assay); type: cell-based; conditions: Ad5 incubated with CTC-96 at 37° C. for 60 minutes, diluted 500 fold, HeLa cells
# Procedure: as §2
# The data graphically depicted in FIG. 1 were obtained as follows: varying concentrations of the CTC-96 were mixed with concentrated Human Adenovirus, [Adenovirus type 5 (Ad5)] and incubated at 37° C. for 60 minutes. Aliquots were then diluted 500 fold into growth medium. Hela cells were exposed to 100 μl of the diluted material to initiate infection. These monolayers were incubated for 24 hours at 37% and 5% CO2 and then washed, scraped, sonicated, centrifuged and the supernatant serially diluted. These serial dilutions were plated onto indicator HeLa cell monolayers and adsorbed for 60 min, aspirated and a methycellulose overlay placed over the cells, which were then incubated for 3 days at 37%. Cultures were counterstained with 1% methylene blue, allowed to dry and the plaques counted. Results are expressed as mean±SD (where error bars are not visible they are contained within data point).
structure (smiles),measurement,setting,value
CC(/C=C(/C)[O-])=NCCN=C(C)/C=C(/C)[O-].Cc1ncc[nH]1.Cc1ncc[nH]1.[Br-].[Co+3] [CTC-96],no detectable virus in the eye,[1]; 50 μg/ml 6 times a day,≤ 13 days
same,no detectable virus in the eye,[1]; 50 μg/ml 9 times a day,≤ 13 days
same,efficacy against Adenovirus types in culture,[2],"effective against types 1, 2, 3, 4, 5, and 7; also recorded: efficacy against Adenovirus types 1, 2, 3, 4, 5, and 7"
same,effect on viral growth in Adenovirus infected cells subsequently exposed to the drug,[3],inhibition of viral growth
same,complete resolution of clinical disease (day after initial drug dosing),[4]; 50 μg/ml 6 times a day for 21 days,≤ 21 days
same,complete resolution of clinical disease (day after initial drug dosing),[4]; 50 μg/ml 9 times a day for 21 days,≤ 21 days
same,progression of disease severity,"[4]; topical eye drops 25 μg/ml, 6×/day",prevented progression of disease severity
same,progression of disease severity,"[4]; topical eye drops 50 μg/ml, 6×/day or 9×/day",prevented progression of disease severity
same,effect on virus growth when virus is exposed to the drug prior to cell infection,[5],inhibitory (prophylactic) effect on growth
